Source: US12624096B2, “Anti-tau antibodies and methods of use thereof” (GTInvent Limited, priority 2020, dated 2026)

Experiments:
dGAE aggregates = dGAE aggregates (Homo sapiens, UniProt P10636); test: Epitope occlusion sandwich ELISA (423 mAb capture) of dGAE aggregated with/without LMTM; format: binding; details: LMTM 1:5 ratio
Procedure: During dGAE aggregation in vitro, scAb binding regions on dGA/dGAE are ‘hidden’ or ‘occluded’ which leads to a loss of immunoreactivity in aggregation samples. Here we have shown the occlusion of binding regions in aggregated dGAE samples and the recovery of immunoreactivity in the presence of LMTM, a tau-aggregation inhibitor. For preparing the aggregates, 10 μl 10 mM DTT was added to 1000 μl 100 μM dGAE and agitated with/without LMTM (1:5 ratio) at 700 rpm for 24 h at 37° C. […] The pellet was then resuspended in half the original volume for further experiments. […] Doubling dilutions of dGAE aggregate ‘total’, ‘supernatant’ and ‘pellet’ samples at 10 μg/ml starting concentration were added to designated wells in doubling dilutions in 1×PBS, dGAE monomer (non-aggregated) was included as assay control. All double dilutions were done in final volumes of 100 μl. This was left to incubate on lab bench for 1 h followed by the addition of test scAbs at 10 μg/ml. Anti-HuCk HRP labelled secondary antibody was added as described previously and ELISA data generated is represented using the graph below.

plasma tau = test: Plasma tau (Simoa) in L66+/- mice treated with LMTM; format: in vivo, mouse
Procedure: The effect of the tau aggregation inhibitor LMTM on the levels of plasma tau in a L66^+/− mouse line was investigated with two assays, both utilising the 3-step Simoa® protocols described above. Using the human specific NT1 assay (BT2 capture with Tau12 detection), low levels of tau (0.41±0.09 pg/ml) were detected in the plasma of 5-month-old L66^+/− that were treated with vehicle control solution (FIG. 50A). At the same time, an increase in tau levels was measured in the plasma of L66^+/− mice that had received an oral administration of LMTM (15 mg/kg) during the time period (1.28±0.11 pg/ml).
This hypothesis was supported by our core-proline antibody assay in which S1D12 antibody coated capture beads and BT2 detector was used (FIG. 50B). This assay detects both human and mouse tau which explains the higher levels of tau detected.

dGAE = dGAE (Homo sapiens, UniProt P10636); test: Thioflavin T dGAE aggregation inhibition assay; format: biochemical; details: 10 μM test protein; 100 μM dGAE, 10 mM DTT, 24 h
dGAE, sequence (P10636 614-708): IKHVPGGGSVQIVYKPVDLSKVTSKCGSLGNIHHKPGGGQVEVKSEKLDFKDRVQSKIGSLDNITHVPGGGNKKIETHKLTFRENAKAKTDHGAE
Procedure: By incubating 100 μM dGAE and 10 mM DTT at 37° C., on a thermomixer at 700 rpm for 24 hours, “pathology mimicking” aggregates which have the morphology of paired helical filaments are formed. This aggregation can be quantified by adding a final concentration of 12.5 μM Thioflavin T (fluorescent dye) which binds to fibril-like β-sheets. Fluorescence was measured with a constant emission wavelength of 480 nm and a scanning excitation wavelength of 350-470 nm using a Varian Cary Eclipse fluorescence spectrophotometer. Maximal fluorescence measurements were used as an indicator of dGAE aggregation (approximately 450 nm excitation). The assay was optimised using a range of S1D12 scAb concentrations (0.04 to 25 µM) and tested for levels of aggregation inhibition as shown in FIG. 35.
Based on FIG. 35, 10 μM scAb was deemed an adequate concentration to compare and rank individual scAb-mediated dGAE aggregation inhibition events. […] A similar inhibition (40%) was seen using 10 μM bovine serum albumin as a negative control (data not shown).

dGAE aggregates, sequence (P10636 614-708): as above

inhibition of dGAE aggregation (dGAE)	Molecule	effect of LMTM on dGAE aggregation and immunoreactivity (dGAE aggregates)	plasma tau, NT1 assay (BT2 capture with Tau12 detection) (plasma tau; 5-month-old L66+/- mice, oral LMTM 15 mg/kg)	plasma tau, core-proline assay (S1D12 capture beads, BT2 detector) (plasma tau; L66+/- mice, LMTM 15 mg/kg)
	CN(C)c1ccc2c(c1)Sc1cc(N(C)C)ccc1N2.CS(=O)(=O)O.CS(=O)(=O)O [LMTM]	preventing the aggregation event, leading to an increased immunoreactivity	1.28 ± 0.11 pg/mL	142.08 ± 12.08 pg/mL
40%	bovine serum albumin: negative control protein in thioflavin T assay [reference compound]			
